Experiments:
[1] = system: re-grouped, stressed pigs; conditions: cited from earlier work
weaning piglets = test: Post-weaning piglet performance (body weight, ADG, ADFI, G:F) after a single application of rabbit maternal pheromone to the nursery feeder; type: in vivo, pig
Excerpt: Piglets (n=120) were randomly selected from nursing sows. A total of 120 piglets, 60 males and 60 females, were weaned at approximately 3 weeks of age and transported for four hours before entering the nursery site. Piglets were housed in groups of three, single-sex (either barrows or gilts), and had ad libitum access to feed and water. A total of 40 pens (the experimental unit) were available; 10 each of male and female experiencing control or pheromone therapy. Space allowance was in excess of industry standards (0.6 m^2 per piglet). Body weight and feed intake were each measured once per week from commencement of weaning until 35 days after weaning.
Control and pheromone-treated piglets were housed in separate rooms, with no airflow between the rooms to ensure no cross contamination between air spaces. To expose piglets to the rabbit maternal pheromone, test piglet feeders received 25 mL of the trans-2-methyl-2-butenal solution (1 μg/mL in isopropyl alcohol) while the control piglet feeders received 25 mL of isopropyl alcohol only. Feeders were sprayed immediately before the arrival of piglets to the nursery site.
Half of the pigs and pens in each group were transported and half were moved directly from the farrowing crates to the adjacent nursery building. The experimental design was a completely random design with a two by two factorial arrangement of transport (or not) and trans-2-methyl-2-butenal or placebo control.
Average daily gain (ADG, kg. per day) was calculated from the body weights both weekly and over the entire period. Average daily feed intake (ADFI, kg. per pig per day) was calculated based on weekly feed consumption. Gain to Feed (G:F) was calculated each week and over the 28-day post-weaning period.
Data were analyzed using SAS software (SAS, 2012). PROC Univariate was used to establish that the overall ADG, ADFI and G:F ratio data were normally distributed. The general linear models procedure was used with pen as the experimental unit. There were 40 experimental units (pens) in total. The original model contained the factorial effects of (A) trans-2-methyl-2-butenal applied during transport or not, (B) trans-2-methyl-2-butenal applied to the nursery feeder or not, and (3) pig sex (barrow vs. gilt) and all possible interactions. […] A final simplified analysis was performed with only the effects of trans-2-methyl-2-butenal applied in the nursery or not with 20 pens per treatment.

## C[C@]12CCC(=O)C[C@@H]1CC[C@@H]1[C@@H]2CC[C@]2(C)C=CC[C@@H]12 [Androstenone]
[1]; pig, in vivo
  Pig aggressive behaviors: reduced
[1]; re-grouped, stressed pigs
  Weight gain: temporarily improve

## C/C=C(\C)C=O [trans-2-methyl-2-butenal]
Weaning piglets; 14 days after weaning
  Piglet body weight vs control: tended (P=0.06) to be heavier
Weaning piglets; P>0.10 vs control
  G:F (gain to feed): not influenced
Weaning piglets; at weaning and 7 days later, 25 mL of 1 μg/mL in isopropyl alcohol sprayed on feeder
  Piglet body weight vs control: statistically similar
Weaning piglets; at weaning, pigs to experience treatment, control 6.5±0.06 kg, P>0.10
  Body weight at weaning: 6.6 ± 0.025 kg
Weaning piglets; both the 4 and 5 week period after weaning, P<0.05 vs control
  Overall ADG (average daily gain): increase
Weaning piglets; days 21, 28 and 35 after weaning, P<0.05
  Piglet body weight vs control: significantly heavier
Weaning piglets; during 4 weeks after weaning, P<0.05 vs control
  ADFI (average daily feed intake): increase
Weaning piglets; first week after weaning
  Stimulatory effect on feed intake: very small (and not significant)
Weaning piglets; five weeks after weaning, P=0.01
  Improvement in body weight vs control: 8.5%
Weaning piglets; five weeks after weaning, control 16.5±0.31 kg, P=0.01
  Body weight five weeks after weaning: 17.9 ± 0.31 kg
Weaning piglets; single application to the feeder in the post-weaning environment
  ADFI and ADG: stimulate
Weaning piglets; transport application, P>0.10
  Overall performance measures, effect of application during transport: not significant
Weaning piglets; weeks 3, 5 and overall, P<0.05
  Post-weaning ADG: increased
Weaning piglets; weeks 3 and 4 after weaning and overall 5-week growth period, P<0.05
  ADFI: higher
Weaning piglets; weeks two to five after weaning
  Stimulatory effect on feed intake: increases in magnitude
